{
  "source": "paper PMC9014651",
  "about": "(Bioorganic Chemistry, 2022)",
  "key": {"SARS-CoV-2 M^pro [1]": {"molecular_target": "T1, SARS-CoV-2 M^pro (Severe acute respiratory syndrome coronavirus 2, UniProt P0DTD1)", "assay": "IC50 measurement on M^pro", "format": "biochemical"}, "M^pro": {"tested_on": "M^pro", "details": "cited from earlier work"}, "SARS-CoV-2 M^pro [2]": {"molecular_target": "T1, SARS-CoV-2 M^pro", "assay": "FRET percent inhibition screening of M^pro inhibitors", "format": "biochemical", "details": "control experiments"}},
  "note": "Where a SMILES comes first, the peptide text is derived from it.",
  "data": [
    {"smiles": "Cc1ccccc1NC(=S)N/N=C/c1ccccc1O", "note": "[2n, (E)-1-(2-hydroxybenzylidene)-4-o-tolylthiosemicarbazide]", "values": [
      {"measurement": "IC50", "setting": "SARS-CoV-2 M^pro [1]", "result": 20.7, "unit": "µM"}
    ]},
    {"smiles": "O=c1c2ccccc2[se]n1-c1ccccc1", "note": "[Ebselen]", "values": [
      {"measurement": "Effect of binding on M^pro stability (thermal shift)", "setting": "M^pro", "result": "destabilization"},
      {"measurement": "Reversibility of M^pro inhibition", "setting": "M^pro", "result": "irreversibly inhibit"}
    ]},
    {"smiles": "O=c1c2ccccc2sn1-c1ccccc1", "note": "[Ebsulfur]", "values": [
      {"measurement": "Reversibility of M^pro inhibition", "setting": "M^pro", "result": "irreversibly inhibit"}
    ]},
    {"smiles": "CC(C)C[C@H](NC(=O)OCc1ccccc1)C(=O)N[C@@H](CC1CCNC1=O)C(O)S(=O)(=O)[O-].[Na+]", "note": "(stereo partly shown) [GC-376]", "values": [
      {"measurement": "IC50 value range (M^pro)", "setting": "M^pro", "result": "single-digit to sub-micromolar"}
    ]},
    {"smiles": "O=C(CC(c1ccccc1)c1ccccc1)NO", "note": "[N-hydroxy-3,3-diphenylpropanamide]", "values": [
      {"measurement": "Inhibitory effect on M^pro (control experiment)", "setting": "SARS-CoV-2 M^pro [2]", "result": "no inhibitory effect"}
    ]},
    {"smiles": "CCCC(NC(=O)C(CC(C)C)NC(=O)OCc1ccccc1)C(=O)C(=O)NCc1ccccn1", "note": "(stereo not shown) [XII]", "values": [
      {"measurement": "IC50 value range (M^pro)", "setting": "M^pro", "result": "single-digit to sub-micromolar"}
    ]},
    {"smiles": "CC(C)(C)NC(=O)N[C@H](C(=O)N1C[C@H]2[C@@H]([C@H]1C(=O)NC(CC1CCC1)C(=O)C(N)=O)C2(C)C)C(C)(C)C", "note": "(stereo partly shown) [boceprevir]", "values": [
      {"measurement": "IC50 value range (M^pro)", "setting": "M^pro", "result": "single-digit to sub-micromolar"}
    ]},
    {"smiles": "CSCC[C@@H](C=O)NC(=O)[C@H](CC(C)C)NC(=O)[C@H](CC(C)C)NC(C)=O", "note": "[calpain inhibitors II] (Ac-Leu-Leu-Met-aldehyde)", "values": [
      {"measurement": "IC50 value range (M^pro)", "setting": "M^pro", "result": "single-digit to sub-micromolar"}
    ]},
    {"smiles": "CCN(CC)C(=S)SSC(=S)N(CC)CC", "note": "[disulfiram]", "values": [
      {"measurement": "Effect of binding on M^pro stability (thermal shift)", "setting": "M^pro", "result": "destabilization"}
    ]}
  ]
}
